Source: ChEMBL document CHEMBL1201862, “PubChem BioAssay data set” (2004)
Active and inactive are the calls of the source.

Tests used:
Streptococcus = assay: Group A Streptococcus viability loss, dose response, counter-screen for streptokinase expression inhibitor project, luminescence, BacTiterGlo (AID 1915); type: functional, organism-based;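 also: potency for reduction of bacterial viability or growth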
Phospholipase A2 = Phospholipase A2 (Homo sapiens, UniProt P04054); type: functional;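 also: confirmatory dose-response counterscreen on phospholipase A2, testing hits that came from an ultra-high-throughput screen for ATG4B inhibitors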
[1] = NIH-3T3 fibroblast cytotoxicity, dose response, cytotoxicity control, cell-based, fluorescence, Alamar Blue, secondary assay (AID 2327); type: functional;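 also: NIH-3T3 mouse fibroblasts cultured with fluconazole at 8 µg/mL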
[2] = C. albicans growth with fluconazole, confirmation, fluorescence, retest (AID 2467); type: functional, cell-based
[3] = test system: Streptococcus sp. 'group A'; assay: growth inhibition of control SK(-) GAS strain, dose response, counter-screen for streptokinase expression inhibitor project, luminescence, kanamycin, BacTiterGlo, confirmation (AID 1900); type: functional, organism-based
Cysteine protease ATG4B = Cysteine protease ATG4B (Homo sapiens, UniProt Q9Y4P1); type: functional;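 also: Fluorescence-based dose-response confirmation assay measuring inhibition of ATG4B activity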
Streptokinase A = molecular target: T1, Streptokinase A (Streptococcus pyogenes serotype M1, UniProt P10520); assay: S. pyogenes streptokinase expression inhibitors, potency, dose response, plasminogen activation absorbance, OD405 (AID 1914); type: functional, Streptococcus pyogenes M1 GAS;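 also: secreted streptokinase activity via plasminogen activation per viability signal from cell pellet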
T1 sequence (P10520 whole entry): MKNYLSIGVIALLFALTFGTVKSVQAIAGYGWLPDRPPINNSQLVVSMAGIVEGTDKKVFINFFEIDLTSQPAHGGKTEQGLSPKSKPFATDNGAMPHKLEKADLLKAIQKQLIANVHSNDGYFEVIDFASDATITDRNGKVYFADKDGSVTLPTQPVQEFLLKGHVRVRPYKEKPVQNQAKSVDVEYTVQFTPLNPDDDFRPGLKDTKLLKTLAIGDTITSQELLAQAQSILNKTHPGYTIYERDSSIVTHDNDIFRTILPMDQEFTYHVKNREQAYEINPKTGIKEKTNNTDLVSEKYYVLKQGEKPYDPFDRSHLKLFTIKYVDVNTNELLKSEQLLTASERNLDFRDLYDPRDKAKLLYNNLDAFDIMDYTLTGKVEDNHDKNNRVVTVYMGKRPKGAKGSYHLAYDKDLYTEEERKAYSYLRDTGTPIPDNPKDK

[4] = molecular target: T2, Intestinal-type alkaline phosphatase (Homo sapiens, UniProt P09923); assay: Dose Response confirmation of uHTS hits from a small molecule inhibitors of human intestinal alkaline phosphatase via a luminescent assay. [Related pubchem assays (depositor defined):AID2544, AID2574]; type: functional
BJ [5] = assay: cytotoxicity toward BJ-TERT-LT-ST fibroblasts, dose response, cell-based, RAS-independent, luminescence (AID 1935); type: functional; conditions: Homo sapiens;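 also: BJ fibroblasts immortalized with TERT plus LT and ST oncogenes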
[6] = molecular target: G-protein coupled receptor 55 (Homo sapiens, UniProt Q9Y2T6); assay: GPR55 agonists via beta-arrestin recruitment, primary screen, imaging, U2OS cells, beta-arrestin-GFP redistribution (AID 1961); type: functional
Beta-galactosidase = Beta-galactosidase (Escherichia coli, UniProt Q8VNN2); assay: PubChem AID 485352; type: functional
[7] = molecular target: T3, Type-1 angiotensin II receptor (Homo sapiens, UniProt P30556); assay: AT1 receptor antagonists, dose response, selectivity assay for APJ receptor antagonist project, cell-based, uHTS hits (AID 463214); type: functional;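 also: antagonist potency against angiotensin II stimulated AT1 response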
T3 sequence (P30556 whole entry): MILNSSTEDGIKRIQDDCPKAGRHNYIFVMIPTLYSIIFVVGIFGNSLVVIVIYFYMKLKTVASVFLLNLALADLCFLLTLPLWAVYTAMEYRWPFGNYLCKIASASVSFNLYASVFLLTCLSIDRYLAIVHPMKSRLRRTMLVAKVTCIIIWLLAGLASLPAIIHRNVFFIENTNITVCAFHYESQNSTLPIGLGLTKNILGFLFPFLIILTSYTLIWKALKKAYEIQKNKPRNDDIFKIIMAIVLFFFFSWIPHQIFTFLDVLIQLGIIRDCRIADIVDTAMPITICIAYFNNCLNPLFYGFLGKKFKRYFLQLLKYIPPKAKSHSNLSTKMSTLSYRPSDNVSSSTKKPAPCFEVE

[8] = molecular target: T2, Intestinal-type alkaline phosphatase; assay: human IAP inhibitors, dose response, biochemical, luminescent, uHTS hits, set 2 (AID 488793); type: functional
BJ [9] = assay: cytotoxicity toward BJ-TERT fibroblasts, dose response, cell-based, RAS-independent, luminescence (AID 1933); type: functional; conditions: Homo sapiens
[10] = molecular target: T4, Alkaline phosphatase, tissue-nonspecific isozyme (Homo sapiens, UniProt P05186); assay: inhibition of tissue-nonspecific alkaline phosphatase – biochemical, dose response (AID 488882); type: functional
T4 sequence (P05186 whole entry): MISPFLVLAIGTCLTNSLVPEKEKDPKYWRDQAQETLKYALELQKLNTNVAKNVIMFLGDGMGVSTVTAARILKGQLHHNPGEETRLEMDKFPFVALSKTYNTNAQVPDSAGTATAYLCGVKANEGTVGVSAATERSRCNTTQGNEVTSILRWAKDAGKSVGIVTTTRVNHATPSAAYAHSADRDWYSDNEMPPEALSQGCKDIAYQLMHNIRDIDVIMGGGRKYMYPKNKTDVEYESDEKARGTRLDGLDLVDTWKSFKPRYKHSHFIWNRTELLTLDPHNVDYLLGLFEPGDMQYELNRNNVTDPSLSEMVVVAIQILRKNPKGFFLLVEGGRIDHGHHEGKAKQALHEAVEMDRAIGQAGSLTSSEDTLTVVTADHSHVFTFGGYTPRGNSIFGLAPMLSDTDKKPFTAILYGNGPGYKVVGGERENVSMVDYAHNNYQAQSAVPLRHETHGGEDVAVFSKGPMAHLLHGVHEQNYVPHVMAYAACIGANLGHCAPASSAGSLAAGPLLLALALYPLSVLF

BJ [11] = assay: cells; type: functional, cell-based; conditions: Homo sapiens
[12] = molecular target: Intestinal-type alkaline phosphatase (Mus musculus, UniProt P24822); assay: PubChem AID 488874; type: functional
[13] = cytotoxicity toward DRD oncogenic fibroblasts, dose response, cell-based, non-viral oncogenic, luminescence (AID 1934); type: functional; conditions: Homo sapiens
[14] = molecular target: T5, Dual specificity protein phosphatase 6 (Rattus norvegicus, UniProt Q64346)
T5 sequence (Q64346 whole entry): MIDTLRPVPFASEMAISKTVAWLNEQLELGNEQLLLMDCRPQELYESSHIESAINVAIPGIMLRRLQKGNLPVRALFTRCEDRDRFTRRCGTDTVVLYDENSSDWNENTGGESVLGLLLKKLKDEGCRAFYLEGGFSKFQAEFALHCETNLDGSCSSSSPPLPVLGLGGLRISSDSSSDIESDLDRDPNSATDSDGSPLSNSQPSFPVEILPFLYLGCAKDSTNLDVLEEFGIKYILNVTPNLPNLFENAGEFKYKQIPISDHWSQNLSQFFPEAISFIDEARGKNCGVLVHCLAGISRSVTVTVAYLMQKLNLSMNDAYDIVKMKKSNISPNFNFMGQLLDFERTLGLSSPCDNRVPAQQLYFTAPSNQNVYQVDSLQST

[15] = molecular target: T5, Dual specificity protein phosphatase 6; type: functional
[16] = molecular target: T6, Tyrosine-protein phosphatase non-receptor type 7 (Homo sapiens, UniProt P35236); type: functional
T6 sequence (P35236 whole entry): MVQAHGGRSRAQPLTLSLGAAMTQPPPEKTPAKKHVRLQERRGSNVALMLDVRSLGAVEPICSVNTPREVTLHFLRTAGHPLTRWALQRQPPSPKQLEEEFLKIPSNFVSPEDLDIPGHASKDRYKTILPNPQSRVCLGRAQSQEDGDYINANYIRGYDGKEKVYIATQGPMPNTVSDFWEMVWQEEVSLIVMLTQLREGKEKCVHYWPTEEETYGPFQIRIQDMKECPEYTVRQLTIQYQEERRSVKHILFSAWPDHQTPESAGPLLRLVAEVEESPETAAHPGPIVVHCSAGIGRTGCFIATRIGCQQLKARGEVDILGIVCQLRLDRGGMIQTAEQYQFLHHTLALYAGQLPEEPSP

[17] = molecular target: Glyceraldehyde-3-phosphate dehydrogenase (Homo sapiens, UniProt P04406)
Cytochrome P450 2C19 = Cytochrome P450 2C19 (Homo sapiens, UniProt P33261); assay: Cytochrome panel assay with activity outcomes. Panel member name: p450-cyp2c19 Compounds with AC50 equal or less than 10 uM are considered active; type: functional; conditions: read-out: AC50
Cytochrome P450 3A4 = Cytochrome P450 3A4 (Homo sapiens, UniProt P08684);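 also: CYP3A4 tested as one member of a cytochrome P450 panel screen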
[18] = molecular target: UDP-galactopyranose mutase (Mycobacterium tuberculosis, UniProt P9WIQ1); assay: Inhibitors of Mycobacterium tuberculosis UDP-galactopyranose mutase (UGM) enzyme Measured in Biochemical System Using Plate Reader - 2105-02_Inhibitor_Dose_CherryPick_Activity. [Related pubchem assays (depositor defined):AID504439]
CHO = assay: cytotoxicity in TLR9-MyD88 CHO cells, dose response, cytotoxicity control for TLR9-MyD88 binding inhibitor project, cell-based, luminescence (AID 588339); type: functional, hamster; conditions: Cricetulus griseus;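 also: CHO cells stably coexpressing TLR9 and MyD88 fusions from primary screen; compound exposure lasted 48 hours before viability readout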
Beta Lactamase = Beta Lactamase (Pseudomonas aeruginosa, UniProt Q932Y6); assay: beta-lactamase reporter inhibitor potency, dose response, artefact control for TLR9-MyD88 binding inhibitor project, BLA reporter cells, FRET fluorescence (AID 588341); type: cell-based;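 also: cell based assay in CHO-K1 cells stably expressing beta-lactamase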
Keap1/Nrf2 = Keap1/Nrf2 (Homo sapiens, UniProt Q14145); assay: Keap1-Nrf2 protein-protein interaction inhibitors, dose response, biochemical, fluorescence polarization, cherry-picked samples (AID 588683)
Cytochrome P450 2D6 = Cytochrome P450 2D6 (Homo sapiens, UniProt P10635);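 also: CYP2D6 member of a cytochrome P450 panel assay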
HeLa = assay: HeLa cell cytotoxicity, dose response, cytotoxicity control, 48 h, plate reader, cherry-picks (AID 504942); type: functional, cell-based; conditions: Homo sapiens
Melanocortin receptor 4 = Melanocortin receptor 4 (Homo sapiens, UniProt P32245); type: functional, cell-based;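 also: Cell-based assay with luminescence read-out, confirmatory dose-response testing for agonist activity of biased ligands at MC4R; human U2OS cells with tagged receptor and beta-arrestin; potency of agonists that increase receptor coupling to beta-arrestin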
[19] = molecular target: Acyl-homoserine lactone acylase PvdQ (Pseudomonas aeruginosa (strain LESB58), UniProt Q9I194); assay: P. aeruginosa PvdQ acylase inhibitors, dose response, biochemical, fluorescence, plate reader and imaging, cherry-picks (AID 493231)
[20] = cytotoxicity in HEK-293T NF-kB-Luc cells, dose response, cytotoxicity control for B/T-cell NF-kB inhibitor project, cell-based, uHTS hits (AID 489019); type: functional;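 also: IC50 reflects cytotoxicity as loss of cell viability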
Jurkat [21] = assay: antigen receptor-induced NF-kB inhibitors, dose response, Jurkat, luciferase reporter, luminescence, B- and T-cell (AID 489004); type: functional, cell-based; conditions: Homo sapiens;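 also: NF-kB luciferase reporter Jurkat cells stimulated with PMA plus ionomycin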
Escherichia coli = assay: microbe, parasite or virus in culture
HEK293 [22] = assay: cytotoxicity in HEK293T NF-kB-Luc cells, SAR follow-up, cytotoxicity control for NF-kB activator project, cell-based, resazurin fluorescence (AID 493251); type: functional; conditions: Homo sapiens
Jurkat [23] = assay: SAR Analysis of small molecule inhibitors of […] specific antigen receptor-induced NF-kB activation in a Jurkat cell line using a luminescence assay - Set 3. [Related pubchem assays (depositor defined):AID435022, AID435025, AID465]; type: functional, cell-based; conditions: Homo sapiens
HEK293 [24] = assay: SAR Analysis of small molecule inhibitors of B-cell specific antigen receptor-induced NF-kB activation in a HEK-293T cell line using a luminescence assay - Set 2. [Related pubchem assays (depositor defined):AID435022, AID435025, AID489021]; type: functional, cell-based; conditions: Homo sapiens
[25] = molecular target: Dual specificity protein phosphatase 3 (Homo sapiens, UniProt P51452); assay: SAR VHR1 Fluorescent Assay for In Vitro dose response studies Set 3. [Related pubchem assays (depositor defined):AID1654, AID1661, AID1878]; type: functional
Dual specificity protein phosphatase 3, sequence (P51452 whole entry): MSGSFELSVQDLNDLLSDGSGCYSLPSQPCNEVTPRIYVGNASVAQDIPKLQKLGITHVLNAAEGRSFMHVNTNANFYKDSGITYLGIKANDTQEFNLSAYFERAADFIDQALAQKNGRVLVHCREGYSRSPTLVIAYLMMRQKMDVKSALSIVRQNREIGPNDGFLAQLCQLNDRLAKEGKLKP

Cytochrome P450 2C19, sequence (P33261 whole entry): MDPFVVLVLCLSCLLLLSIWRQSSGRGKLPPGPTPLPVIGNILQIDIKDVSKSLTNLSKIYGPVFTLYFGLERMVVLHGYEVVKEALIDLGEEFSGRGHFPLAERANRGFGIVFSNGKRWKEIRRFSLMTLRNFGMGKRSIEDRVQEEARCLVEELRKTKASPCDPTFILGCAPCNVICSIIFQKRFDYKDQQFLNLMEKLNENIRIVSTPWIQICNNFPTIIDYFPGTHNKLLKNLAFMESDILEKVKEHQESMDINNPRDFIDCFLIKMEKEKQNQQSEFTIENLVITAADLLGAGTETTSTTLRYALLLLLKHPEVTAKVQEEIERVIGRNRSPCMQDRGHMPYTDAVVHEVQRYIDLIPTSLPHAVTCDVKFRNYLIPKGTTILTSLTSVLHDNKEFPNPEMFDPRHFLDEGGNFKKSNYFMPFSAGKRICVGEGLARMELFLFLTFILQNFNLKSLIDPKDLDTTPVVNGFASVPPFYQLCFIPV
T2 sequence (P09923 whole entry): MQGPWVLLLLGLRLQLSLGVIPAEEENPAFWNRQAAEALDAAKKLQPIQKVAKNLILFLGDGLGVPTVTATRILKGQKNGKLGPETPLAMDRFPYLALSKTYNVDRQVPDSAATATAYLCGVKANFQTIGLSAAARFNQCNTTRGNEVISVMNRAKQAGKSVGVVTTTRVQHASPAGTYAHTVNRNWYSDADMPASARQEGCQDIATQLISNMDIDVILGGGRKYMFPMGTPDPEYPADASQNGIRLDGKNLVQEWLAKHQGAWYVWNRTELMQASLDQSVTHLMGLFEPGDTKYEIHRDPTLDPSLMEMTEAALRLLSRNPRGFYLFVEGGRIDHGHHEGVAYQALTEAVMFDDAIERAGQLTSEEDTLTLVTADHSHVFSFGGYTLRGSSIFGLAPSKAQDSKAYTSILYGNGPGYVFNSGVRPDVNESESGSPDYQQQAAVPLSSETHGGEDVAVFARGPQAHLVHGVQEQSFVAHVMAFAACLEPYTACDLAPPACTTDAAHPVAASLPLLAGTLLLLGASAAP
Cytochrome P450 3A4, sequence (P08684 whole entry): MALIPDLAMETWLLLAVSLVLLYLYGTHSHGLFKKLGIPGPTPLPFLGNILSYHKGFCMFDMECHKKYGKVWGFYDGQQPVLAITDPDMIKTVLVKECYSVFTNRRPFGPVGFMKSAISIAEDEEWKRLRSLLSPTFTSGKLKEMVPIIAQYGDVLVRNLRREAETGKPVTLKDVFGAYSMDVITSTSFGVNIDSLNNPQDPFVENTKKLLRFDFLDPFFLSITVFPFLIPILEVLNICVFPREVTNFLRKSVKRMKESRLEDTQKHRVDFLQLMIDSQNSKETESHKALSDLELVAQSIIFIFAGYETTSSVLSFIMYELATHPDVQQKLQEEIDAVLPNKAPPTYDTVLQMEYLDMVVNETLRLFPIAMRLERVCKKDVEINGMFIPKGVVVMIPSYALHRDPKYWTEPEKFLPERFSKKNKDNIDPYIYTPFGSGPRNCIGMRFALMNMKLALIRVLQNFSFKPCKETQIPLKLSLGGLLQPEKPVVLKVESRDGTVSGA
Phospholipase A2, sequence (P04054 whole entry): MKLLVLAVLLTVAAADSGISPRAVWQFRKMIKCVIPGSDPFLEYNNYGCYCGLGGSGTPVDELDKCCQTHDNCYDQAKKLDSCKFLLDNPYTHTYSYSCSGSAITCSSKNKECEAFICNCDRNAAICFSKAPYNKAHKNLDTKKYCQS
Acyl-homoserine lactone acylase PvdQ, sequence (Q9I194 24-193 limits assumed): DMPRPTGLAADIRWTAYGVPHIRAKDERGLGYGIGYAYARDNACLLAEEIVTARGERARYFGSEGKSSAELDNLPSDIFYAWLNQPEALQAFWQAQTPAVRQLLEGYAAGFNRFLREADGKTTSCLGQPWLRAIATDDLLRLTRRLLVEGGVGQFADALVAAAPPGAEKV
Acyl-homoserine lactone acylase PvdQ, sequence (Q9I194 217-762 limits assumed): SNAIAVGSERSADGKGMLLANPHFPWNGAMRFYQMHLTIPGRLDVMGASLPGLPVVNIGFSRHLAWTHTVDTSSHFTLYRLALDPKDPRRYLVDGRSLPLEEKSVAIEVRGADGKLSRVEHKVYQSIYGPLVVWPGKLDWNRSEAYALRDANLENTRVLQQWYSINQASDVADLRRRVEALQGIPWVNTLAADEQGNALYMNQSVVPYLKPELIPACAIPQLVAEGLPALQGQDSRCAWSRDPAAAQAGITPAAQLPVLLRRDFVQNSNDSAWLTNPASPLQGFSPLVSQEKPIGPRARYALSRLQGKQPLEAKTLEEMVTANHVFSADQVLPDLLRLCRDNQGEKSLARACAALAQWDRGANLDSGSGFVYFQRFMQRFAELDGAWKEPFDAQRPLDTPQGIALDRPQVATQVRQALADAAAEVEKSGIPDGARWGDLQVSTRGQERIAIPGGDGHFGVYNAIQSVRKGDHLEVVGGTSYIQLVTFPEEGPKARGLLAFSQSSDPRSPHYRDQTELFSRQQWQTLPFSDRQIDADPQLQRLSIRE
Glyceraldehyde-3-phosphate dehydrogenase, sequence (P04406 whole entry): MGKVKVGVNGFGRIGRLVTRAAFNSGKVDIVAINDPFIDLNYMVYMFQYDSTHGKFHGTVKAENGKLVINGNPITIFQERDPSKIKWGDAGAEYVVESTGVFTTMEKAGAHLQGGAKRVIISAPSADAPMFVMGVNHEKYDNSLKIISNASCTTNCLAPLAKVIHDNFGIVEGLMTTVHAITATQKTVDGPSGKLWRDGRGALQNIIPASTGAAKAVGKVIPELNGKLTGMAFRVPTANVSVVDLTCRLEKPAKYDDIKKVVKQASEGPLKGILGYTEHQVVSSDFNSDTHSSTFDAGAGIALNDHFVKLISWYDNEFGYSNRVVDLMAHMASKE
Beta Lactamase, sequence (Q932Y6 whole entry): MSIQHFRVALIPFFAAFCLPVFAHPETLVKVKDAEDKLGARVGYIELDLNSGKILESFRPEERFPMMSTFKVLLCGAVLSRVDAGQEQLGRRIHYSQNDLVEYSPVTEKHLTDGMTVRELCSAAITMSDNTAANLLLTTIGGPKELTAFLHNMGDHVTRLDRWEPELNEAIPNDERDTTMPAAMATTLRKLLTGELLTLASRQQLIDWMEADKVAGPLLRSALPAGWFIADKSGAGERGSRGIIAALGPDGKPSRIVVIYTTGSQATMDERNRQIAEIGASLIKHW
Cytochrome P450 2D6, sequence (P10635 whole entry): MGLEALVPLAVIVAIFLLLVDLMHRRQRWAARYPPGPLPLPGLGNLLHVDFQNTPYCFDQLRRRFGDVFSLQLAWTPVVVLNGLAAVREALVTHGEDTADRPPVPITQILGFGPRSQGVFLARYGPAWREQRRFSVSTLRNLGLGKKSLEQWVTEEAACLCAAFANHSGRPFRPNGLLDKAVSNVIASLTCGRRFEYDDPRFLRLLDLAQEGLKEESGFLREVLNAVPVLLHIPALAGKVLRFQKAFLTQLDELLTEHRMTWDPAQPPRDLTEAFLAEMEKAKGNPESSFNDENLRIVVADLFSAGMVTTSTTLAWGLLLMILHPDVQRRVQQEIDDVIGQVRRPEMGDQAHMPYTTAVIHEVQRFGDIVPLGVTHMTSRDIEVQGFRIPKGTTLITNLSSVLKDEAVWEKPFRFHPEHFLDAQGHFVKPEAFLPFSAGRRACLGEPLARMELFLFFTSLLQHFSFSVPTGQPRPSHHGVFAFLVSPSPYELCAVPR
G-protein coupled receptor 55, sequence (Q9Y2T6 whole entry): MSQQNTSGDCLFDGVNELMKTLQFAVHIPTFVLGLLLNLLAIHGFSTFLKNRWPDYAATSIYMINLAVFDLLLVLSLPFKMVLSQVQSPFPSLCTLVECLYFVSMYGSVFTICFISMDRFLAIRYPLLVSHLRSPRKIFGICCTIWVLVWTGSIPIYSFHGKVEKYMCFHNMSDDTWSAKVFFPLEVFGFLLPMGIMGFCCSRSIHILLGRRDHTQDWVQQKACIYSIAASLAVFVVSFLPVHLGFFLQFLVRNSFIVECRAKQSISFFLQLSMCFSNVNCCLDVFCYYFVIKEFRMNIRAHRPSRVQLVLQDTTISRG
Melanocortin receptor 4, sequence (P32245 whole entry): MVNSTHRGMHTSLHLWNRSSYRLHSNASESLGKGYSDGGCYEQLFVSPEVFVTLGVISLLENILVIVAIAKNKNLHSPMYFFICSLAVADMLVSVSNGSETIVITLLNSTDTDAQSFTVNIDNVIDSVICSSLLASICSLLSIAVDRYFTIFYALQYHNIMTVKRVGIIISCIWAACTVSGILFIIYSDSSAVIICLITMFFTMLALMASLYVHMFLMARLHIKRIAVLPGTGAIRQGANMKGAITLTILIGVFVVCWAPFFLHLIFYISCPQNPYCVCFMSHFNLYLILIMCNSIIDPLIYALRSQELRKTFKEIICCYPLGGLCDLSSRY
UDP-galactopyranose mutase, sequence (P9WIQ1 whole entry, the tested form may be a part): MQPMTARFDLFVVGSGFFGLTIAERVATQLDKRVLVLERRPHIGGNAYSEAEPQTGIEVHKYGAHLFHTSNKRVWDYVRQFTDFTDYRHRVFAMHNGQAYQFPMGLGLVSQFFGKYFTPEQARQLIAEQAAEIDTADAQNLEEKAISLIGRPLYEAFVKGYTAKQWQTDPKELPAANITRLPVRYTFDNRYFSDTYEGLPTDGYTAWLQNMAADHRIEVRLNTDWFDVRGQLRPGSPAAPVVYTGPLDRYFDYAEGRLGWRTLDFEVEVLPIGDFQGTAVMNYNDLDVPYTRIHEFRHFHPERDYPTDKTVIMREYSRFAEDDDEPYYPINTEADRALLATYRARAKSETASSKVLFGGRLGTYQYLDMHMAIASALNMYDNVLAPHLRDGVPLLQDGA

O=C1NC(=O)/C(=C/c2ccccc2Oc2ccc(Cl)cc2)S1
EC50 (Streptococcus): 7.13 µM (active) | IC50 (Phospholipase A2): 13.9 µM (active) | EC50 [1]: > 160 µM (inactive) | EC50 [2]: 5.01 µM (active) | EC50 [3]: 7.87 µM (active) | IC50 (Cysteine protease ATG4B): 9.09 µM (active) | EC50 (Streptokinase A): > 50 µM (not active)

C=CCN1C(=O)/C(=C\C=C2\N(C)c3ccccc3C2(C)C)SC1=S
IC50 [4]: 15.9 µM (inactive) | EC50 (BJ [5]): > 150 µM (not active) | EC50 [6]: > 32 µM (inactive) | EC50 (Beta-galactosidase): > 40 µM (inactive) | IC50 [7]: > 40 µM (not active) | IC50 [8]: 11 µM (active) | EC50 (BJ [9]): > 150 µM (not active) | IC50 [10]: 8.19 µM (active) | EC50 (BJ [11]): 42.9 µM (active) | IC50 [12]: 33.4 µM (active) | EC50 [13]: > 150 µM (not active)

Cc1ccc(O)c2c1C1C=CCC1C(C(=O)O)N2 (stereo not given)
IC50 [14]: > 100 µM (inactive) | IC50 [15]: 86.4 µM (active) | IC50 [16]: 2.63 µM (active) | IC50 [17]: > 100 µM (not active)

O=C(OC1CCN(c2ccc([N+](=O)[O-])cc2)CC1)c1ccccc1
AC50 (Cytochrome P450 2C19): 0.794 µM (inconclusive) | AC50 (Cytochrome P450 3A4): inconclusive

O=C(NCc1cccc(F)c1)c1cccc2c1C(=O)c1ccc(N3CCC(Cc4ccccc4)CC3)cc1S2(=O)=O
AC50 [18]: 5.93 µM (active) | IC50 (CHO): > 49.8 µM (inactive) | IC50 (Beta Lactamase): 3.21 µM (active)

CCCCOc1nc2nc(-c3ccco3)n(Cc3ccco3)c(N)c-2c1C#N
AC50 (Keap1/Nrf2): > 52 µM (inactive)

NC(=O)CC(c1ccccc1)c1ccco1 (stereo not given)
AC50 (Cytochrome P450 2D6): inconclusive | AC50 (Cytochrome P450 2C19): 28.2 µM (inconclusive)

Cc1ccc(O)c(C(=O)/C=C/c2ccc3c(c2)OCCO3)c1
AC50 (HeLa): 73.2 µM (active) | EC50 (Melanocortin receptor 4): > 89.2 µM (inactive) | AC50 [19]: 1.14 µM (active)

CC(=O)OC(C)(C)/C=C/C(=O)[C@](C)(O)C1[C@H](O)C[C@@]2(C)C3CC=C4C(C[C@H](O)C(=O)C4(C)C)[C@]3(C)C(=O)C[C@]12C (stereo not given in full)
IC50 [20]: > 80 µM (inactive) | IC50 (Jurkat [21]): 3.03 µM (active)

Cc1c(Cl)cccc1NC(=O)C1NC(=O)CC1c1ccccc1 (stereo not given)
AC50 (Escherichia coli): 27.6 µM (active)

CNC(=O)CCc1nc(-c2ccc(C)cc2)no1
IC50 (HEK293 [22]): > 80 µM (inactive) | IC50 (Jurkat [23]): > 80 µM (inactive) | IC50 (HEK293 [24]): > 80 µM (inactive)

COc1ccc(-c2nnc(Nc3nc4ccc(SC)cc4s3)o2)cc1
IC50 [25]: 15.4 µM (active)
